The target in assay [1] is T1, Ba/F3-TPR-MET-D1228N cells (Homo sapiens, UniProt P08581, D1228N, cells depend on it).
T1 construct: fused on or other part: P12270 (Nucleoprotein TPR)
Kind of assay: CellTiter-Glo Cell Viability Assay, Ba/F3-TPR-MET-D1228N. Format: cell-based. The conditions noted are these: 72 hours. An outline of the steps: (§1)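 IC50 values come from curve-fitted luminescence. Viable-cell ATP was read by CellTiter-Glo 2.0 after a 72 h, 37 °C incubation of 3000 TPR-MET or D1228N-mutant Ba/F3 cells per well. Compounds were tested as a 9-point, 3-fold series with 0.1% DMSO final.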

The target of the next assay is T2, Ba/F3-TPR-MET cells (Homo sapiens, UniProt P08581).
T2 construct: fused on or other part: P12270 (Nucleoprotein TPR)
Kind of assay: CellTiter-Glo Cell Viability Assay, Ba/F3-TPR-MET. Format: cell-based. The conditions noted are these: 72 hours. In a few lines: as §1

In a further assay the target is T3, MET (Homo sapiens, UniProt P08581).
T3 construct: purchased Carna Biosciences 08-151
Kind of assay: MET Mobility Shift Assay. The conditions noted are these: biochemical assay IC50; 100 μM ATP, 60 minute kinase reaction. In a few lines:
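IC50s come from inhibition of substrate-to-phosphopeptide conversion, read by electrophoretic mobility shift. Reaction: 100 μM ATP, 1.5 μM 5-FAM peptide, 0.625 nM MET, 10 mM MgCl2, 60 min, after a 30 min room-temperature enzyme pre-incubation, quenched with EDTA.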

A further assay concerns the target T4, MET D1228N (Homo sapiens, UniProt P08581, D1228N).
T4 construct: purchased Signalchem M52-12IG
The experiment in a line: MET D1228N Mobility Shift Assay. The conditions noted are these: biochemical assay IC50; 100 μM ATP, 60 minute kinase reaction. In a few lines: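 Microfluidic electrophoresis quantified phosphorylated versus unphosphorylated 5-FAM-KKKKEEIYFFF peptide (1.5 μM) after a 60 min reaction with 100 μM ATP. MET D1228N (0.313 nM) in 50 mM HEPES, 10 mM MgCl2, 2 mM DTT was preincubated 30 min; IC50 fitted to conversion inhibition.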

Data on 20 molecules can be found in US11753395B2 (Kinnate Biopharma Inc., priority 2021, dated 2023).

Molecules are shown by their SMILES. pEC50, pIC50: −log10 of the molar value.

T3 sequence (P08581 25-1390): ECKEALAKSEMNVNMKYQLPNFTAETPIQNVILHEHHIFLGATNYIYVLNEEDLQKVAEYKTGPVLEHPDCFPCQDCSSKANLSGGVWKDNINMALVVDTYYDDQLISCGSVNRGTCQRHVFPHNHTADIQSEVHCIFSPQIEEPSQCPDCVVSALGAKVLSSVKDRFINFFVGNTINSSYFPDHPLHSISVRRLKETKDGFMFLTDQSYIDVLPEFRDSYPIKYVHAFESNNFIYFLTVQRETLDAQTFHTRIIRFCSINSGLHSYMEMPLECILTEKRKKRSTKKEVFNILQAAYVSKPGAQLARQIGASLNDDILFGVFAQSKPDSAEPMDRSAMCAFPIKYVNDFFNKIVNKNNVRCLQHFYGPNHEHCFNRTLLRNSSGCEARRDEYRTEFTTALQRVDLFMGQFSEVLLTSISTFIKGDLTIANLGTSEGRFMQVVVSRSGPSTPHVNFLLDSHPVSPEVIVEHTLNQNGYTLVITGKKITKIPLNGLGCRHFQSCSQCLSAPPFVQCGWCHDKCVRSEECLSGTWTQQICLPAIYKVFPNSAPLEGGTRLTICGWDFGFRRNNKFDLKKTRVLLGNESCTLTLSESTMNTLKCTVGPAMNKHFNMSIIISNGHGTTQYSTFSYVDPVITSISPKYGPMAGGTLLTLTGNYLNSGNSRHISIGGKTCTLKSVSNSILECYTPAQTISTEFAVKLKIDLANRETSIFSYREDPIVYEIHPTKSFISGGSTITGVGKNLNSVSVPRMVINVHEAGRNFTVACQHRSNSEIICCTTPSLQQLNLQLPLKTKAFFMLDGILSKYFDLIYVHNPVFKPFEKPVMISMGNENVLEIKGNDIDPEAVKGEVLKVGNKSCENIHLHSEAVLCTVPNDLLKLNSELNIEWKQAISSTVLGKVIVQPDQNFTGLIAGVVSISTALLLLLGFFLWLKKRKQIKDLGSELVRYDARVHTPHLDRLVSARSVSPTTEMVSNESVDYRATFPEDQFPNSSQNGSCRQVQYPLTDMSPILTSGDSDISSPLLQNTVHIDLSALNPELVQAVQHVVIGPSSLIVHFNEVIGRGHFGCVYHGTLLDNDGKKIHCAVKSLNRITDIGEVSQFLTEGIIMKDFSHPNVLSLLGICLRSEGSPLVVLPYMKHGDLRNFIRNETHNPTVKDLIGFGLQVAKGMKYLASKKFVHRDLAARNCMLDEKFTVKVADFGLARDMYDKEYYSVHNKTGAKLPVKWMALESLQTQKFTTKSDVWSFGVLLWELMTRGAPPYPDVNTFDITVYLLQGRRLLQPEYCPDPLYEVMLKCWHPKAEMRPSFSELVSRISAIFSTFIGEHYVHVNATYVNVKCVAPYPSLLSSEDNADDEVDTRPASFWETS
T4 sequence (P08581 25-1390 D1228N): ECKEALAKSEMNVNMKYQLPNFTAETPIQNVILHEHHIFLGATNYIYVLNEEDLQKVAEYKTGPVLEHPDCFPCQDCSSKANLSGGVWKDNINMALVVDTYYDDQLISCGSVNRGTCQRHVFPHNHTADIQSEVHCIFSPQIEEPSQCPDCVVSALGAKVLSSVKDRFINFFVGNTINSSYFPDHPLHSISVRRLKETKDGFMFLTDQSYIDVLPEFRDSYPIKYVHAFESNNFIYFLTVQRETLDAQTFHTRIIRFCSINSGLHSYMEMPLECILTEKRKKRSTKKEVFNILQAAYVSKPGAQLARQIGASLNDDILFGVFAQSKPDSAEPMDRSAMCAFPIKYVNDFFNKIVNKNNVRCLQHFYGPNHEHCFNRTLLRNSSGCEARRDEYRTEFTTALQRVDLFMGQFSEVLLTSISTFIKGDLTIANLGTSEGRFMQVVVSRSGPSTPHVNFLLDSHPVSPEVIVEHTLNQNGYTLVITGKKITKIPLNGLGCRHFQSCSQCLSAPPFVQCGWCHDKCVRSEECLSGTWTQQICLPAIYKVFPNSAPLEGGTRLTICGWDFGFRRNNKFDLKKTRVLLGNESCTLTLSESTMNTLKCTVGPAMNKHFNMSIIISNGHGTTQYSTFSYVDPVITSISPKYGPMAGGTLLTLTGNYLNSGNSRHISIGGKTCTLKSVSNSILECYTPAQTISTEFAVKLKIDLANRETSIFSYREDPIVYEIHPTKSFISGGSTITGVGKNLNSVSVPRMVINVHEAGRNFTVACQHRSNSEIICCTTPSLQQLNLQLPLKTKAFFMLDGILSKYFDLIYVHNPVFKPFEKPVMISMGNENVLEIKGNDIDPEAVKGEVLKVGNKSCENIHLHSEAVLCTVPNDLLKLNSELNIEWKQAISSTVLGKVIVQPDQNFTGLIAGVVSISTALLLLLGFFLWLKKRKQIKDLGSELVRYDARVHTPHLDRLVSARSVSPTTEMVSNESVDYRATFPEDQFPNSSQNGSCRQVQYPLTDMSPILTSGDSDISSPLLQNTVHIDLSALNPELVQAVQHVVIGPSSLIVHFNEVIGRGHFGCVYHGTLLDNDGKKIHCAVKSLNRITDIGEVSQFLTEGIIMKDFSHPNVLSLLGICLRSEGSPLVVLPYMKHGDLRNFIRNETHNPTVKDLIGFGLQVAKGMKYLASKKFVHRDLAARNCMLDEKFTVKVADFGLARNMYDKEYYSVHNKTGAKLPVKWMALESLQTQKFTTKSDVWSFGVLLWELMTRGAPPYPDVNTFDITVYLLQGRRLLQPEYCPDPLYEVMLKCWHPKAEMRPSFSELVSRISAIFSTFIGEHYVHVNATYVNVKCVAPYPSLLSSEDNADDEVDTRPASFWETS
T2 sequence (P08581 whole entry, change not shown, the tested form may be a part): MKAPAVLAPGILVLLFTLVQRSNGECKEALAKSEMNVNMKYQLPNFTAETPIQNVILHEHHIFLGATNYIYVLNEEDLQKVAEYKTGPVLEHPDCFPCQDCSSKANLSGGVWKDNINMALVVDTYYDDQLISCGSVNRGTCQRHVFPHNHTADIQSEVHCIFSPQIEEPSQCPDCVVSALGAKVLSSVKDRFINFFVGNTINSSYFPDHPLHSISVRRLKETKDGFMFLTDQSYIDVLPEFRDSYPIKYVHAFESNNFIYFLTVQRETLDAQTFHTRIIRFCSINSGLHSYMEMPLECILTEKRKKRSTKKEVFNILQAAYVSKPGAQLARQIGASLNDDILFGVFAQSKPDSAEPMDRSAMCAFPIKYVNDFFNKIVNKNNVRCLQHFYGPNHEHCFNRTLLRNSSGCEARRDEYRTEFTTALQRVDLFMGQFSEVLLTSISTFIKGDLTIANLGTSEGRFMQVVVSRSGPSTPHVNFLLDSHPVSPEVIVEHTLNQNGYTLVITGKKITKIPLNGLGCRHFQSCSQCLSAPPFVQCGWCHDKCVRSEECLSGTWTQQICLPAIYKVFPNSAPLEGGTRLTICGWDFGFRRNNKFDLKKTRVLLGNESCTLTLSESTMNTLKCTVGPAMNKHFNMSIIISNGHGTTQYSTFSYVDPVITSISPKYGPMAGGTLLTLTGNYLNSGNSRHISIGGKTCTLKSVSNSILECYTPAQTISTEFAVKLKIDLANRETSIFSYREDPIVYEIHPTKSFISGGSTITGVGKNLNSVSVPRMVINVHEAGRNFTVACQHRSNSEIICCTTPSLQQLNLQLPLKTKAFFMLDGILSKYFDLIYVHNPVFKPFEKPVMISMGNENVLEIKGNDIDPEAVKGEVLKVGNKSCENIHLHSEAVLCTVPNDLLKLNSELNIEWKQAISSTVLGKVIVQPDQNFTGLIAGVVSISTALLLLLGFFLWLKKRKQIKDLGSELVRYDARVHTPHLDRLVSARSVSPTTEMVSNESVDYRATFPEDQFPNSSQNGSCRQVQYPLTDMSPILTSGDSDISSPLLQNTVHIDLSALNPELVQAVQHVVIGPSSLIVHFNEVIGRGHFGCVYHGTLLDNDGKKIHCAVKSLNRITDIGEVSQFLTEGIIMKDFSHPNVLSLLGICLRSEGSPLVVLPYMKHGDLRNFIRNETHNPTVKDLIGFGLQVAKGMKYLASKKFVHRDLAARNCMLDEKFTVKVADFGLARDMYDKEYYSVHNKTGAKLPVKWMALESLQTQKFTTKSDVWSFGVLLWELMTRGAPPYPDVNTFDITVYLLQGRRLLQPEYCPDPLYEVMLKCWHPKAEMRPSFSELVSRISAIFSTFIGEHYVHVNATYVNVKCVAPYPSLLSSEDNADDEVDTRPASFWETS

Take `CCCOc1ccncc1C(=O)Nc1cc(F)c(Oc2ccnc3cc(OCCNC)c(OC)cc23)c(F)c1` [Example 56, N-[3,5-difluoro-4-({6-methoxy-7-[2-(methylamino)ethoxy]quinolin-4-yl}oxy)phenyl]-4-propoxypyridine-3-carboxamide]: the negative-log EC50 (pEC50) (in assay [1]; on Ba/F3-TPR-MET cells) was at least 7.00 throughout. For the same molecule, the pIC50 at MET and on MET D1228N was at least 7.00 in each case.
For the molecule `CNCCOc1cc2nccc(Oc3c(F)cc(NC(=O)c4cnccc4O[C@H]4CCOC4)cc3F)c2cc1OC` [Example 71, N-[3,5-difluoro-4-({6-methoxy-7-[2-(methylamino)ethoxy]quinolin-4-yl}oxy)phenyl]-4-[(3S)-oxolan-3-yloxy]pyridine-3-carboxamide], the pEC50 (in assay [1]; at Ba/F3-TPR-MET cells) was 6.00 to 7.00 in each case. The pIC50 on MET and on MET D1228N was at least 7.00 throughout.
For `CNCCOc1cc2nccc(Oc3c(F)cc(NC(=O)c4cnc(C)nc4OC4CC4)cc3F)c2cc1OC` [Example 114, 4-cyclopropoxy-N-[3,5-difluoro-4-({6-methoxy-7-[2-(methylamino)ethoxy]quinolin-4-yl}oxy)phenyl]-2-methylpyrimidine-5-carboxamide], the pEC50 (in assay [1]; on Ba/F3-TPR-MET cells) was 6.00 to 7.00 throughout. Moreover, the pIC50 on MET and on MET D1228N was at least 7.00 throughout.
In the case of `COc1cc2c(Oc3c(F)cc(NC(=O)c4cnccc4OC)cc3F)ccnc2cc1OC(F)F` [Example 38, N-(4-((7-(difluoromethoxy)-6-methoxyquinolin-4-yl)oxy)-3,5-difluorophenyl)-4-methoxypyridine-3-carboxamide], the negative logarithm of the EC50 (pEC50) (in assay [1]; at Ba/F3-TPR-MET cells) was below 5.00 in each case. Moreover, the negative logarithm of the IC50 (pIC50) on MET and on MET D1228N was at least 7.00 throughout.
Regarding `COc1cc2nccc(Oc3c(F)cc(NC(=O)c4cnccc4OC)cc3F)c2cc1OCC(C)(C)O` [Example 125, N-(3,5-difluoro-4-{[6-(2-hydroxy-2-methylpropoxy)-7-methoxyquinolin-4-yl]oxy}phenyl)-4-methoxypyridine-3-carboxamide], the negative logarithm of the EC50 (pEC50) (in assay [1]; at Ba/F3-TPR-MET cells) was at least 7.00 in each case. Moreover, the pIC50 at MET and on MET D1228N was at least 7.00 each time.
Turning to `CCOc1ccncc1C(=O)Nc1ccc(Oc2ccnc3cc(OCCCNC)c(OC)cc23)c(F)c1F` [Example 17, N-[2,3-difluoro-4-({6-methoxy-7-[3-(methylamino)propoxy]quinolin-4-yl}oxy)phenyl]-4-ethoxypyridine-3-carboxamide], the negative logarithm of the EC50 (pEC50) (in assay [1]; on Ba/F3-TPR-MET cells) was at least 7.00 throughout. Moreover, the pIC50 at MET and on MET D1228N was at least 7.00 each time.
Consider `CNCCOc1cc2nccc(Oc3c(F)cc(NC(=O)c4ncccc4OC4CC4)cc3F)c2cc1OC` [Example 77, 3-cyclopropoxy-N-[3,5-difluoro-4-({6-methoxy-7-[2-(methylamino)ethoxy]quinolin-4-yl}oxy)phenyl]pyridine-2-carboxamide], for which the pEC50 (in assay [1]; at Ba/F3-TPR-MET cells) was at least 7.00 throughout. The pIC50 at MET and on MET D1228N was at least 7.00 in each case.
With `COc1cc2nccc(Oc3c(F)cc(NC(=O)c4cnccc4OC)cc3F)c2cc1O[C@@H](C)CO` [Example 126, (S)-N-(3,5-difluoro-4-{[6-((1-hydroxypropan-2-yl)oxy)-7-methoxyquinolin-4-yl]oxy}phenyl)-4-methoxypyridine-3-carboxamide], the pEC50 (in assay [1]; at Ba/F3-TPR-MET cells) was at least 7.00 each time. Moreover, the negative logarithm of the IC50 (pIC50) at MET and on MET D1228N was at least 7.00 throughout.
With `CCOc1ccncc1C(=O)Nc1cc(F)c(Oc2ccnc3cc(OCCNC)c(OC)cc23)c(F)c1F` [Example 51, 4-ethoxy-N-[2,3,5-trifluoro-4-({6-methoxy-7-[2-(methylamino)ethoxy]quinolin-4-yl}oxy)phenyl]pyridine-3-carboxamide], the pEC50 was at least 7.00 in assay [1] and 6.00 to 7.00 at Ba/F3-TPR-MET cells. In addition, the pIC50 on MET and on MET D1228N was at least 7.00 each time.
Turning to `CNCCOc1ccc2c(Oc3c(F)cc(NC(=O)c4ccncc4OC4CC4)cc3F)ccnc2c1` [Example 81, 3-cyclopropoxy-N-(3,5-difluoro-4-((7-(2-(methylamino)ethoxy)quinolin-4-yl)oxy)phenyl)isonicotinamide], the negative-log EC50 (pEC50) (in assay [1]; at Ba/F3-TPR-MET cells) was at least 7.00 throughout. Moreover, the pIC50 on MET and at MET D1228N was at least 7.00 in each case.
Take `CNCCOc1cc2nccc(Oc3c(F)cc(NC(=O)c4cnc(C)cc4OC)cc3F)c2cc1OC` [Example 45, N-(3,5-difluoro-4-((6-methoxy-7-(2-(methylamino)ethoxy)quinolin-4-yl)oxy)phenyl)-4-methoxy-6-methylpyridine-3-carboxamide]: the negative logarithm of the EC50 (pEC50) (in assay [1]; at Ba/F3-TPR-MET cells) was 6.00 to 7.00 throughout. For the same molecule, the pIC50 on MET and on MET D1228N was at least 7.00 throughout.
Turning to `COc1cc2c(Oc3c(F)cc(NC(=O)c4cnccc4OC4CC4)cc3F)ccnc2cc1OC[C@H](C)O` [Example 98, 4-cyclopropoxy-N-[3,5-difluoro-4-({7-[(2S)-2-hydroxypropoxy]-6-methoxyquinolin-4-yl}oxy)phenyl]pyridine-3-carboxamide], the negative logarithm of the EC50 (pEC50) (in assay [1]; at Ba/F3-TPR-MET cells) was at least 7.00 throughout. Further, the pIC50 at MET and on MET D1228N was at least 7.00 throughout.
For the molecule `CNCCOc1cc2nccc(Oc3c(F)cc(NC(=O)c4cnccc4OC4CC(F)(F)C4)cc3F)c2cc1OC` [Example 57, N-[3,5-difluoro-4-({6-methoxy-7-[2-(methylamino)ethoxy]quinolin-4-yl}oxy)phenyl]-4-(3,3-difluorocyclobutoxy)pyridine-3-carboxamide], the negative logarithm of the EC50 (pEC50) (in assay [1]; at Ba/F3-TPR-MET cells) was 6.00 to 7.00 throughout. Moreover, the pIC50 on MET and at MET D1228N was at least 7.00 each time.
Take `CNCCOc1cc2nccc(Oc3c(F)cc(NC(=O)c4cnccc4OC[C@@H](C)F)cc3F)c2cc1OC` [Example 61, N-[3,5-difluoro-4-({6-methoxy-7-[2-(methylamino)ethoxy]quinolin-4-yl}oxy)phenyl]-4-[(2R)-2-fluoropropoxy]pyridine-3-carboxamide]: the pEC50 (in assay [1]; on Ba/F3-TPR-MET cells) was at least 7.00 throughout. Also, the pIC50 on MET and at MET D1228N was at least 7.00 in each case.
For `CNCCCOc1cc2nccc(Oc3ccc(NC(=O)c4cnccc4OC)c(F)c3F)c2cc1OC` [Example 18, N-[2,3-difluoro-4-({6-methoxy-7-[3-(methylamino)propoxy]quinolin-4-yl}oxy)phenyl]-4-methoxypyridine-3-carboxamide], the pEC50 in assay [1] was at least 7.00; at Ba/F3-TPR-MET cells, 6.00 to 7.00. For the same molecule, the pIC50 on MET and at MET D1228N was at least 7.00 in each case.
Consider `CNCCOc1cc2nccc(Oc3c(F)cc(NC(=O)c4cc(F)c(F)cc4OC)cc3F)c2cc1OC` [Example 2, N-(3,5-difluoro-4-((6-methoxy-7-(2-(methylamino)ethoxy)quinolin-4-yl)oxy)phenyl)-4,5-difluoro-2-methoxybenzamide], for which the pEC50 in assay [1] was 6.00 to 7.00; at Ba/F3-TPR-MET cells it was 5.00 to 6.00. In addition, the negative logarithm of the IC50 (pIC50) at MET and on MET D1228N was at least 7.00 throughout.
`CNCCOc1cc2nccc(Oc3c(F)cc(NC(=O)c4cnccc4OCCOC)cc3F)c2cc1OC` [Example 67, N-[3,5-difluoro-4-({6-methoxy-7-[2-(methylamino)ethoxy]quinolin-4-yl}oxy)phenyl]-4-(2-methoxyethoxy)pyridine-3-carboxamide]: the negative-log EC50 (pEC50) (in assay [1]; on Ba/F3-TPR-MET cells) was 6.00 to 7.00 each time. Also, the pIC50 at MET and on MET D1228N was at least 7.00 throughout.
Consider `COc1cc2nccc(Oc3c(F)cc(NC(=O)c4cnccc4OC)c(F)c3F)c2cc1O[C@@H](C)CO` [Example 133, (S)-4-methoxy-N-(2,3,5-trifluoro-4-((6-((1-hydroxypropan-2-yl)oxy)-7-methoxyquinolin-4-yl)oxy)phenyl)nicotinamide], for which the negative-log EC50 (pEC50) (in assay [1]; at Ba/F3-TPR-MET cells) was at least 7.00 in each case. Also, the negative-log IC50 (pIC50) on MET and on MET D1228N was at least 7.00 throughout.
Regarding `COc1cc2nccc(Oc3c(F)cc(NC(=O)c4c(OC5CC5)ccnc4F)cc3F)c2nc1OC` [Example 144, 4-cyclopropoxy-N-(4-((6,7-dimethoxy-1,5-naphthyridin-4-yl)oxy)-3,5-difluorophenyl)-2-fluoropyridine-3-carboxamide], the pEC50 (in assay [1]; at Ba/F3-TPR-MET cells) was at least 7.00 each time. Moreover, the pIC50 on MET and on MET D1228N was at least 7.00 throughout.
Consider `CNCCOc1cc2nccc(Oc3c(F)cc(NC(=O)c4cnc(C)cc4OC4CC4)cc3F)c2cc1OC` [Example 117, 4-cyclopropoxy-N-[3,5-difluoro-4-({6-methoxy-7-[2-(methylamino)ethoxy]quinolin-4-yl}oxy)phenyl]-6-methylpyridine-3-carboxamide], for which the pEC50 (in assay [1]; on Ba/F3-TPR-MET cells) was at least 7.00 throughout. For the same molecule, the negative-log IC50 (pIC50) on MET and on MET D1228N was at least 7.00 in each case.
